Values of other authors as cited in PMC3807987 (Pharmacognosy Research, 2013).
Read-outs that look alike come from different tables or passages of the source.

System: CYP2D6

CYP2D6 inhibition strength (dose of 50 mg): mild inhibitor
CYP2D6 inhibition strength (dose of 200 mg): potent inhibitor
SMILES: CN[C@H]1CC[C@@H](c2ccc(Cl)c(Cl)c2)c2ccccc21 [Sertraline]
